Assay results: paper PMC8348110, “A Novel Peptide Derived from the Transmembrane Domain of Romo1 Is a Promising Candidate for Sepsis Treatment and Multidrug-Resistant Bacteria” (International Journal of Molecular Sciences, 2021)
≈ marks a conversion by molar mass, not a printed value. Residues, ends and D or L forms follow the SMILES beside them.

Assays:
P. aeruginosa = settings: mouse, iv, 40 mg/kg
Method: Figure 4 The antibacterial activity of AMPR-22 in various physiological conditions. (A,B) Effects of AMPR-22 activity in mouse plasma and human serum. AMPR-22 was incubated with blood components for the indicated times (0, 15, 30, 60, 90, 120, 150, and 180 min) and then with P. aeruginosa or S. aureus for an hour. (C,D) Effects of AMPR-22 activity in low-density lipoprotein (LDL), high-density lipoprotein (HDL), and bovine serum albumin. AMPR-22 was incubated with blood components for the indicated times (0, 30, 60, 120, and 180 min) and then with P. aeruginosa or S. aureus for an hour. (E) Effects of AMPR-22 activity in whole blood. AMPR-22 was incubated with mouse and human whole blood for the indicated times (0, 30, 60, 90, 120, and 180 min) and then with P. aeruginosa for an hour. (F,G) The antibacterial activity of AMPR-22 in vivo. […] (F) The relative CFU in blood samples was calculated using the following formula: CFU at indicated time ÷ CFU at 0 min × 100 (%). […] The antibacterial activity was measured using a colony-forming unit assay. […]
(§1) We used the CFU counting method to measure antibacterial activity, with all bacteria cultured to the mid-log phase in an appropriate broth medium. Bacterial CFUs were counted after overnight culture at 37 °C on TS or LB agar plates. The MBC value and antibacterial activity in blood components were determined as previously described. […]

[1] = tested on: Methicillin-resistant S. aureus (MRSA) ATCC 33591; format: cell-based, Staphylococcus aureus
In short: (§2)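 MBC = lowest peptide concentration yielding no colonies on TS agar after overnight growth at 37 °C. Before plating, cells (5 × 10^5 CFU/mL, mid-log) were incubated 1 h with peptide, 2-fold series from 64 μg/mL, in 10 mM Na phosphate pH 7.4 plus 1% TS broth.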

[2] = tested on: Vancomycin-resistant S. aureus NCCP 15872; format: cell-based, Staphylococcus aureus; settings: Vancomycin-resistant NCCP 15872, 1 h
In short: as §2

BALB/c mice = experiment: In vivo toxicity, single intravenous dose; set-up: species or system mouse; settings: 100 mg/kg single intravenous dose, tracked for 15 days, compared with PBS-treated mice
Method: We compared the toxicity of AMPR-22 in mammalian cells with that of AMPR-11 and AMPR-21. […] To investigate the toxicity of AMPR-22 to white blood cells, we isolated fresh peripheral blood mononuclear cells (PBMCs) from humans and mice. […] To check for in vivo toxicity before administering AMPR-22 to mice in a murine model of sepsis, we intravenously injected 100 mg/kg single dose of AMPR-22 (10-fold higher than the working dose) into BALB/c mice and tracked them for 15 days.
Figure 3 The cytotoxicity of AMPR-22. (A) The cell toxicity of the AMPR-11 analog peptides was measured using the MTT assay in HeLa and HEK293 cells. Daptomycin and magainin 2 were also tested. (B) A hemolysis assay was performed in mouse and human blood. The percentage of hemolyzed erythrocytes was measured using a spectrophotometer. Peptides were serially diluted and incubated with cells for an hour. (C) The toxicity of leukocytes was measured using a flow cytometric assay with LIVE/DEAD fixable dead cell™ stain dye and freshly isolated mouse and human PBMCs. […] Data represent the means ± SD of more than three independent experiments.

[3] = tested on: P. aeruginosa or S. aureus; format: in vitro ADME
Method: Figure 4 The antibacterial activity of AMPR-22 in various physiological conditions. (A,B) Effects of AMPR-22 activity in mouse plasma and human serum. AMPR-22 was incubated with blood components for the indicated times (0, 15, 30, 60, 90, 120, 150, and 180 min) and then with P. aeruginosa or S. aureus for an hour. (C,D) Effects of AMPR-22 activity in low-density lipoprotein (LDL), high-density lipoprotein (HDL), and bovine serum albumin. AMPR-22 was incubated with blood components for the indicated times (0, 30, 60, 120, and 180 min) and then with P. aeruginosa or S. aureus for an hour. (E) Effects of AMPR-22 activity in whole blood. AMPR-22 was incubated with mouse and human whole blood for the indicated times (0, 30, 60, 90, 120, and 180 min) and then with P. aeruginosa for an hour. (F,G) The antibacterial activity of AMPR-22 in vivo. AMPR-22 was intravenously administered into P. aeruginosa-infected mice, and blood was collected from the tail veins of the mice at the indicated times (0, 15, 30, 60, and 90 min). (F) The relative CFU in blood samples was calculated using the following formula: CFU at indicated time ÷ CFU at 0 min × 100 (%). (G) The relative CFU of blood samples obtained from F was re-graphed using the following formula: CFU of AMPR-22-treated mouse group ÷ CFU of control (PBS) group × 100 (%). (H) The functional half-life measurement of AMPR-22. AMPR-22 was intravenously administered into mice, and blood was collected at the indicated times (0, 5, 30, 60, 90, 120, 150, and 180 min). The blood was collected by cardiac puncture, and the plasma was isolated by centrifugation. Then, the plasma was incubated with P. aeruginosa for an hour. The antibacterial activity was measured using a colony-forming unit assay. […]
as §1

For `CC[C@H](C)[C@H](NC(=O)CNC(=O)CNC(=O)[C@@H](NC(=O)[C@H](C)NC(=O)[C@H](CCSC)NC(=O)[C@H](Cc1ccccc1)NC(=O)[C@@H](NC(=O)CNC(=O)[C@H](Cc1ccccc1)NC(=O)[C@H](CCCCN)NC(=O)CNC(=O)CNC(=O)[C@H](CCCCN)NC(=O)[C@H](CCCCN)NC(=O)[C@H](CCSC)NC(=O)[C@H](CCSC)NC(=O)[C@H](CCCCN)NC(=O)[C@@H](N)CCCCN)[C@@H](C)O)[C@@H](C)CC)C(=O)N[C@@H](CCCNC(=N)N)C(=O)O` [AMPR-22] (H-KKMMKKGGKFGTFMAIGGIR-OH), the “Antibacterial activity maintained 37 min after peptide injection” value (P. aeruginosa; in vivo) was “more than 50%”, the “Functional half-life in vivo” value (P. aeruginosa) was “around 37 min” and the “MBC Value, MRSA” value ([1]; ATCC 33591, 1 h) was 2 µg/mL (≈ 0.915 µM). For the same compound, the “MBC Value, Methicillin-resistant S. aureus” value ([1]; Table 2, ATCC 33591, modified MBC) was 2 µg/mL (≈ 0.915 µM), the “MBC Value, Vancomycin-resistant S. aureus” value [2] was 4 µg/mL (≈ 1.83 µM) and the “In vivo toxicity (weight loss or death)” value (BALB/c mice) was “No significant changes”. For the same compound, the “Antibacterial activity in presence of human LDL, HDL or bovine serum albumin” value [3] was “not affected”, the “Functional half-life in vitro” value [3] was “around 90 min” and the “Half-life of antibacterial activity in mouse plasma and human serum” value [3] was “longer than that of AMPR-11”.
